Assay results: US12152038B2, “Vasopressin receptor antagonists and products and methods related thereto” (Neumora Therapeutics, Inc., priority 2017, dated 2024)

Assays:
[1] = biological target: T1, human Arginine Vasopressin Receptor 1a (AVPR1a) (Homo sapiens, UniProt P37288); assay: Vasopressin V1a receptor antagonist assay (FLIPR calcium, CHO-AVPR1a cells); assay type: cell-based
T1 construct: expressed in transfected cells; host or cells: CHO (CHO-AVPR1a, kept under G418 selection)
In short: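 CHO cells expressing human AVPR1a were loaded with Calcium-6 dye and preincubated with compound for 15 min at 37° C. Cells were then challenged with AVP at its daily-determined EC80, and FLIPR fluorescence was read. Compounds were tested in duplicate as 10-point 1:3 dilutions from a top final concentration of 3 μM.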

[2] = biological target: T2, human Oxytocin Receptor (hOTR) (Homo sapiens, UniProt P30559); assay: Oxytocin receptor (OTR) antagonist assay (FLIPR calcium, CHEM-1-hOTR cells); assay type: cell-based
T2 construct: host or cells: CHEM-1 (ready-to-assay frozen cells)
T2 sequence (P30559 1-389): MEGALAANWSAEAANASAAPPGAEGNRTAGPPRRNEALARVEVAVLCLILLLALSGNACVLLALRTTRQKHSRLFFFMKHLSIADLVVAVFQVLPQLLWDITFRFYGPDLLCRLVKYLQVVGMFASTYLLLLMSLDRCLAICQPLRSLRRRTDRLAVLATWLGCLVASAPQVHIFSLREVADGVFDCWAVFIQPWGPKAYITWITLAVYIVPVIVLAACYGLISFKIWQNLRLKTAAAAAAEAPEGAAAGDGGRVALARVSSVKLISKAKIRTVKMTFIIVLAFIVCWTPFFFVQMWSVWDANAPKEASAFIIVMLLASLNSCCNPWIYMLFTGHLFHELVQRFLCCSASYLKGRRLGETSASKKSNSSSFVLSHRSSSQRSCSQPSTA
Experimental: This assay was performed in CHEM-1 cells expressing the human Oxytocin Receptor (hOTR) to determine the inhibitory effect of the compounds of the invention on the human Oxytocin receptor. Oxytocin evokes an increase in intracellular calcium in CHEM-1-hOTR cells which is measured in a fluorescence assay on the FLIPR^TETRA using calcium sensitive dyes. Test compounds were assessed for their ability to affect the magnitude of the response to oxytocin, with antagonists showing a concentration-dependent reduction in the oxytocin-mediated fluorescence.
CHEM-1-hOTR ready was used to assay frozen cells (Eurofins #HTS09ORTA) which are supplied with a proprietary Media Component.
Day 1 of the assay: Cells were thawed in a 37° C. water bath and diluted with the supplied Media Component to a final volume of 10 ml. The cell suspension was centrifuged at 1000 rpm for 3 min at room temperature and the supernatant was discarded. The cell pellet was resuspended in Media Component (10.5 ml) and the cells (25 μL) were dispensed into a poly-D-lysine coated black, clear bottomed, 384-well plate. The plates were incubated overnight at 37° C., 5% CO2.
Day 2: At the start of each assay day the potency of oxytocin was assessed and an EC80 concentration was determined for subsequent compound profiling. Assays were performed using a two-step addition protocol on the FLIPR^TETRA; first addition of 5 μl of control or test compound at 10× final in assay buffer with 15 min incubation at 37° C., 5% CO2 followed by 10 μl of oxytocin at 6× final concentration in assay buffer. Changes in fluorescence were monitored for 3 min after both additions on the FLIPR^TETRA using 470-495 nm excitation and 515-575 nm emission wavelengths. The assay buffer consisted of HBSS (+Ca/+Mg) supplemented with 20 mM HEPES, and for the preparation of the oxytocin agonist only, 0.1% w/v bovine serum albumin. The assay was initiated by the removal of growth media from the cells and replaced with 45 μl of Calcium-6 dye (Molecular Devices) prepared at 1× in assay buffer. Cells were loaded with dye for 60-90 min at 37° C., 5% CO2 before initiation of the FLIPR^TETRA protocol. […] For compound profiling, test compounds were first serially diluted in DMSO (10-point curve, 1:3 dilutions) then diluted 33.3-fold in assay buffer prior to addition to the dye loaded cells on the FLIPR^TETRA. At the end of the incubation period 10 μl of oxytocin in assay buffer containing 0.1% BSA was added at the previously determined EC80 concentration.
In-plate controls for the assay included a L-368,899 concentration-response curve as the reference OTR antagonist and an oxytocin concentration-response curve to confirm the reproducibility of the EC80 used for the compound challenge.

T1 sequence (P37288 whole entry): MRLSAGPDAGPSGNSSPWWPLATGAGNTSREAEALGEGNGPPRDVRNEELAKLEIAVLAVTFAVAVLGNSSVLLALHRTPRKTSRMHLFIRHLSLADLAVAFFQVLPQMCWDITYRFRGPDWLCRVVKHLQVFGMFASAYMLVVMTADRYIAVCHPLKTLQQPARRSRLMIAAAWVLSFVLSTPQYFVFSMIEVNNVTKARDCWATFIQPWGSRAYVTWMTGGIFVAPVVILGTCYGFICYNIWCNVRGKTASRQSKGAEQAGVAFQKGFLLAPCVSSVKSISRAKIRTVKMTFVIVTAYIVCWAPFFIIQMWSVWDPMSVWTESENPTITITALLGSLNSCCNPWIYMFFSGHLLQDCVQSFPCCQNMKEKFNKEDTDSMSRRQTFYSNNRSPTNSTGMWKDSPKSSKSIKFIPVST

SMILES | IC50 [1] [nM] | IC50 [2] [nM]
CC1COc2cc(Cl)ccc2N1C(=O)N1CC2(C1)CN(c1ncccn1)C2 (single isomer, unassigned) [1-83-B, (7-chloro-3-methyl-2,3-dihydro-4H-benzo[b][1,4]oxazin-4-yl)(6-(pyrimidin-2-yl)-2,6-diazaspiro[3.3]heptan-2-yl)methanone] | < 100 | 100 to 500
CC1COc2cc(F)ccc2N1C(=O)N1CC2(C1)CN(c1noc3ccccc13)C2 (single isomer, unassigned) [4-3-B] | < 100 | ≥ 1000
CC1COc2cc(Cl)ccc2N1C(=O)N1CC2(C1)CN(c1cccnn1)C2 (single isomer, unassigned) [9-1-A] | ≥ 1000 | –
CC1COc2cc(Cl)ccc2N1C(=O)N1CC2(C1)CN(c1cccnn1)C2 (single isomer, unassigned) [9-1-B] | < 100 | 100 to 500
CC1CN(C(=O)N2CC3(C2)CN(c2ccc(F)cn2)C3)c2ccc(Cl)cc2O1 (single isomer, unassigned) [9-3-A] | < 100 | 500 to 1000
CC1CN(C(=O)N2CC3(C2)CN(c2ccc(F)cn2)C3)c2ccc(F)cc2O1 (single isomer, unassigned) [9-4-B] | < 100 | ≥ 1000
CC1COc2cc(F)ccc2N1C(=O)N1CC2(C1)CN(c1ccc(F)cn1)C2 (single isomer, unassigned) [12-1-B] | < 100 | 100 to 500
O=C(N1CC2(C1)CN(c1ccc(F)cn1)C2)N1CCC(O)c2cc(Cl)ccc21 (single isomer, unassigned) [13-1-A] | < 100 | ≥ 1000
O=C(N1CC2(C1)CN(c1ccccn1)C2)N1CCC(O)c2cc(Cl)ccc21 (single isomer, unassigned) [13-2-A] | < 100 | 500 to 1000
O=C(N1CC2(C1)CN(c1ccccn1)C2)N1CCC(O)c2cc(Cl)ccc21 (single isomer, unassigned) [13-2-B] | < 100 | 500 to 1000
O=C(N1CC2(C1)CN(c1cnccn1)C2)N1CCC(O)c2cc(Cl)ccc21 (single isomer, unassigned) [13-3-A] | < 100 | ≥ 1000
CC1COc2cc(Cl)ccc2N1C(=O)N1CC2(C1)CN(c1noc3cccnc13)C2 (single isomer, unassigned) [18-3-B] | < 100 | ≥ 1000
CC1COc2cc(F)ccc2N1C(=O)N1CC2(C1)CN(c1ncc(F)cn1)C2 (single isomer, unassigned) [18-4-B] | < 100 | –
CC1COc2cc(F)c(F)cc2N1C(=O)N1CC2(C1)CN(c1ncccn1)C2 (single isomer, unassigned) [19-1-B] | < 100 | ≥ 1000
CC1COc2cc(Cl)c(F)cc2N1C(=O)N1CC2(C1)CN(c1ncccn1)C2 (single isomer, unassigned) [19-2-B] | < 100 | 500 to 1000
CC1COc2cc(F)c(F)cc2N1C(=O)N1CC2(C1)CN(c1cccnn1)C2 (single isomer, unassigned) [19-3-B] | < 100 | –
CC1COc2cc(Cl)c(F)cc2N1C(=O)N1CC2(C1)CN(c1cccnn1)C2 (single isomer, unassigned) [19-4-A] | < 100 | 100 to 500
CC1COc2cc(F)c(F)cc2N1C(=O)N1CC2(C1)CN(c1ccc(F)cn1)C2 (single isomer, unassigned) [19-5-B] | < 100 | –
CC1COc2cc(Cl)ccc2N1C(=O)N1CC2(C1)CN(c1cccnc1)C2 (single isomer, unassigned) [20-1-B] | < 100 | –
Cc1cncc(N2CC3(CN(C(=O)N4c5ccc(F)cc5OCC4C)C3)C2)n1 (single isomer, unassigned) [20-2-A] | 500 to 1000 | –
Cc1cncc(N2CC3(CN(C(=O)N4c5ccc(F)cc5OCC4C)C3)C2)n1 (single isomer, unassigned) [20-2-B] | < 100 | 100 to 500
CC1COc2cc(F)ccc2N1C(=O)N1CC2(C1)CN(c1cc(C#N)ccn1)C2 (single isomer, unassigned) [20-3-B] | < 100 | 100 to 500

More lines, now with the values ahead:

IC50 [1] [nM] | IC50 [2] [nM] | SMILES
< 100 | – | O=C(N1CC2(C1)CN(c1ncccn1)C2)N1CCOc2cc(Cl)ccc21 [1-4]
< 100 | – | Cc1cccnc1N1CC2(CN(C(=O)N3CCOc4cc(Cl)ccc43)C2)C1 [1-5]
< 100 | – | Cc1ccnc(N2CC3(CN(C(=O)N4CCOc5cc(Cl)ccc54)C3)C2)c1 [1-14]
< 100 | – | COc1ccnc(N2CC3(CN(C(=O)N4CCOc5cc(Cl)ccc54)C3)C2)c1 [1-15]
< 100 | – | O=C(N1CC2(C1)CN(c1ncccc1F)C2)N1CCc2cc(Cl)ccc21 [1-76]
< 100 | – | O=C(N1CC2(C1)CN(c1ccccn1)C2)N1CCc2cc(Cl)ccc21 [1-77]
< 100 | – | O=C(N1CC2(C1)CN(c1cc(F)ccn1)C2)N1CCc2cc(Cl)ccc21 [1-79]
< 100 | – | O=C(N1CC2(C1)CN(c1cccnn1)C2)N1CCOc2cc(Cl)c(F)cc21 [1-81]
< 100 | – | O=C(N1CC2(C1)CN(c1noc3ccccc13)C2)N1CCOc2cc(Cl)ccc21 [4-1, (6-(benzo[d]isoxazol-3-yl)-2,6-diazaspiro[3.3]heptan-2-yl)(7-chloro-2,3-dihydro-4H-benzo[b][1,4]oxazin-4-yl)methanone]
< 100 | – | O=C(N1CC2(C1)CN(c1ncc(F)cn1)C2)N1CCOc2cc(Cl)ccc21 [4-2]
< 100 | – | CC1COc2cc(F)ccc2N1C(=O)N1CC2(C1)CN(c1noc3ccccc13)C2 (stereo not shown) [4-3]
< 100 | – | Cc1nc(N2CC3(CN(C(=O)N4CCOc5cc(Cl)ccc54)C3)C2)ncc1F [6-1, (7-chloro-2,3-dihydro-4H-benzo[b][1,4]oxazin-4-yl)(6-(5-fluoro-4-methylpyrimidin-2-yl)-2,6-diazaspiro[3.3]heptan-2-yl)methanone]
< 100 | – | O=C(N1CC2(C1)CN(c1ccccn1)C2)N1CCOc2cc(Cl)ccc21 [8-2]
< 100 | – | O=C(N1CC2(C1)CN(c1cnccn1)C2)N1CCOc2cc(Cl)ccc21 [8-3]
< 100 | – | O=C(N1CC2(C1)CN(c1ccc(F)cn1)C2)N1CCc2cc(Cl)ccc21 [8-11]
< 100 | – | O=C(N1CC2(C1)CN(c1cnccn1)C2)N1CCc2cc(Cl)ccc21 [8-14]
< 100 | – | COc1ccc2c(c1)OCCN2C(=O)N1CC2(C1)CN(c1ccc(F)cn1)C2 [9-2]
< 100 | – | O=C(N1CC2(C1)CN(c1ccc(F)cn1)C2)N1CCOc2cc(F)c(F)cc21 [9-6]
< 100 | – | O=C(N1CC2(C1)CN(c1ccc(F)cn1)C2)N1CCC(F)(F)c2cc(Cl)ccc21 [17-1, (6-chloro-4,4-difluoro-3,4-dihydroquinolin-1(2H)-yl)(6-(5-fluoropyridin-2-yl)-2,6-diazaspiro[3.3]heptan-2-yl)methanone]
< 100 | – | CC1COc2cc(F)ccc2N1C(=O)N1CC2(C1)CN(c1ncccn1)C2 (stereo not shown) [18-1, (7-fluoro-3-methyl-2,3-dihydro-4H-benzo[b][1,4]oxazin-4-yl)(6-(pyrimidin-2-yl)-2,6-diazaspiro[3.3]heptan-2-yl)methanone]
< 100 | – | CC1COc2cc(F)c(F)cc2N1C(=O)N1CC2(C1)CN(c1ncccn1)C2 (stereo not shown) [19-1, (6,7-difluoro-3-methyl-2,3-dihydro-4H-benzo[b][1,4]oxazin-4-yl)(6-(pyrimidin-2-yl)-2,6-diazaspiro[3.3]heptan-2-yl)methanone]
< 100 | – | CC1COc2cc(F)c(F)cc2N1C(=O)N1CC2(C1)CN(c1cccnn1)C2 (stereo not shown) [19-3]
< 100 | – | Cc1cnc(N2CC3(CN(C(=O)N4c5ccc(Cl)cc5OCC4C)C3)C2)nc1 (stereo not shown) [20-13]
